Results reported in ChEMBL document CHEMBL4411322 (J Med Chem, 2019).
Active and inactive are the calls of the source. No cut-off for these calls is given here. Non-standard residues stand in square brackets, D forms with d. Residues, ends and D or L forms follow the SMILES beside them. Groups on a side chain read outwards from the residue. *: point of attachment. BODIPY(FL) = CC1=CC(C)=[N+]2C1=Cc1ccc(CCC(=O)*)n1[B-]2(F)F; NMeK = CN[C@@H](CCCCN)C(=O)O; Ahx = NCCCCCC(=O)O

Tests used:
[1] = molecular target: Integrin alpha-IIb/beta-3 (Homo sapiens, UniProt P05106+P08514); assay: Inhibition of human fibrinogen binding to human platelet integrin alpha2b-beta3 receptor after 1 hr by solid-phase binding assay
Integrin alpha-V/beta-5 = Integrin alpha-V/beta-5 (Homo sapiens, UniProt P06756+P18084); assay: Inhibition of human vitronectin binding to human integrin alphavbeta5 receptor after 1 hr by solid-phase binding assay; type: protein-complex assay
Integrin alpha-V/beta-6 = Integrin alpha-V/beta-6 (Homo sapiens, UniProt P06756+P18564); assay: Inhibition of LAP binding to human integrin alphavbeta6 receptor after 1 hr by solid-phase binding assay; type: protein-complex assay; details: read-out: IC50
Integrin alpha-V/beta-3 = Integrin alpha-V/beta-3 (Homo sapiens, UniProt P05106+P06756); assay: Inhibition of human vitronectin binding to human integrin alphavbeta3 receptor after 1 hr by solid-phase binding assay; type: protein-complex assay
Integrin alpha-V/beta-8 [2] = molecular target: T1, Integrin alpha-V/beta-8 (Homo sapiens, UniProt P06756+P26012); assay: Inhibition of LAP binding to human integrin alphavbeta8 receptor after 1 hr by solid-phase binding assay; type: protein-complex assay; details: read-out: IC50
Target sequence in this assay (P06756 31-889 limits assumed): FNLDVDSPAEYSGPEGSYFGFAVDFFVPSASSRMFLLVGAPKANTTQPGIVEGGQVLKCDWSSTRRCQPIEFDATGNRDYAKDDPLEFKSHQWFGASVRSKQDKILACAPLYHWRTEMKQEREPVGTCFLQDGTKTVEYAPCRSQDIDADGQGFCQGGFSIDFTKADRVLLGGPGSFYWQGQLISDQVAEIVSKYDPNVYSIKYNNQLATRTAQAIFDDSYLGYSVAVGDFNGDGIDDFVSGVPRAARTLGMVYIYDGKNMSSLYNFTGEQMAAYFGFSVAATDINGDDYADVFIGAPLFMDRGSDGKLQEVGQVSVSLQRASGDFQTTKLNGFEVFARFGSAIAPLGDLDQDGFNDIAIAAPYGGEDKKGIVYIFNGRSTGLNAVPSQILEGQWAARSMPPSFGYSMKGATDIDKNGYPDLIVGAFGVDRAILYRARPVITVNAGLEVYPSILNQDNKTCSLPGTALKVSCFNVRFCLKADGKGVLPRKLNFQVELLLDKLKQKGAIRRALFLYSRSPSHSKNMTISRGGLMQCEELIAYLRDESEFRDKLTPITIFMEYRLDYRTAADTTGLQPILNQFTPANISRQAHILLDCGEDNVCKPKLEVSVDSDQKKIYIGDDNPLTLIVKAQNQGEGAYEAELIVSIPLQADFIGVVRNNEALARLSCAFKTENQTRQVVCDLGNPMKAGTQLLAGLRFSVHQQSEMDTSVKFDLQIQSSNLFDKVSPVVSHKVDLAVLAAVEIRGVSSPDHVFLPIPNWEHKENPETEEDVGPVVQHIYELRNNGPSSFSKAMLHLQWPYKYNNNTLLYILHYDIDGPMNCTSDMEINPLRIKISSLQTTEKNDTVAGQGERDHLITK
Target sequence in this assay (P06756 891-1048 limits assumed): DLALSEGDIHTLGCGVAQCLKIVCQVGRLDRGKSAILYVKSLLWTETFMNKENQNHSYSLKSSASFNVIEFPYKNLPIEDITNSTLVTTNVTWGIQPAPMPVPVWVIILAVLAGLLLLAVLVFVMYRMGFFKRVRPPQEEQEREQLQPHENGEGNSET
Target sequence in this assay (P26012 43-769 limits assumed): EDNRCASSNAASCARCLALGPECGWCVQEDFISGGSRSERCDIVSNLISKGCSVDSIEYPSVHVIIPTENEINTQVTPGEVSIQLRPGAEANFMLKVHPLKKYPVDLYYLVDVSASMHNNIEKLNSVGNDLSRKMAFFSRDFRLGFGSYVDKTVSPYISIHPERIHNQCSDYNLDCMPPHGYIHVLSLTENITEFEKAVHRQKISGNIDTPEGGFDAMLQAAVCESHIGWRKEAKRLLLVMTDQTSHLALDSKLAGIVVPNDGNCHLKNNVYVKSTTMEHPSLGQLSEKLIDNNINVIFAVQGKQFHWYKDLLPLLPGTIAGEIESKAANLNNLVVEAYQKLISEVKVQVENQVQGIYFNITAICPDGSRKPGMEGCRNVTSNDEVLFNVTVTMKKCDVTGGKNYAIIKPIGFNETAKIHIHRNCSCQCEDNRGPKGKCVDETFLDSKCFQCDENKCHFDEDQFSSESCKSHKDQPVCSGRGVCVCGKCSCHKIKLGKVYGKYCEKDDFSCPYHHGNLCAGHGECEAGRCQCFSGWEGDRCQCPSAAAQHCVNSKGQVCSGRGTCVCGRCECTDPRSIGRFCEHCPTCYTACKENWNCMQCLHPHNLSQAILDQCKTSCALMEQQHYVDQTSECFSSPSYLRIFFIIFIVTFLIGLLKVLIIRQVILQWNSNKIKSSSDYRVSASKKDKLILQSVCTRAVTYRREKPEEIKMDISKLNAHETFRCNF

Homo sapiens = organism: Homo sapiens; assay: Selectivity ratio of IC50 for human integrin alphavbeta6 receptor to IC50 for human integrin alphavbeta8 receptor
Integrin alpha-5/beta-1 = Integrin alpha-5/beta-1 (Homo sapiens, UniProt P05556+P08648); assay: Inhibition of human fibronectin binding to human integrin alpha5beta1 receptor after 1 hr by solid-phase binding assay; type: protein-complex assay
Integrin alpha-V/beta-8 [3] = molecular target: T1, Integrin alpha-V/beta-8; assay: Binding affinity to alphavbeta8 in human HN cells assessed as fluorescence intensity at 10 uM after 1 hr using BDP FL-labeled compound by immunocytochemical analysis; type: cell-based
Integrin alpha-V/beta-8 [4] = molecular target: T1, Integrin alpha-V/beta-8; assay: Binding affinity to alphavbeta8 in human REC cells assessed as fluorescence intensity at 10 uM after 1 hr using BDP FL-labeled compound by immunocytochemical analysis; type: cell-based
Integrin alpha-V/beta-8 [5] = molecular target: T1, Integrin alpha-V/beta-8; assay: Binding affinity to alphavbeta8 in human BHY cells assessed as fluorescence intensity at 10 uM after 1 hr using BDP FL-labeled compound by immunocytochemical analysis; type: cell-based
Integrin alpha-V/beta-8 [6] = molecular target: T1, Integrin alpha-V/beta-8; assay: Binding affinity to alphavbeta8 in TGF-beta1 stimulated human REC cells assessed as fluorescence intensity at 10 uM after 1 hr using fluorescence-labeled compound by immunocytochemical analysis
Integrin alpha-V/beta-8 [7] = molecular target: T1, Integrin alpha-V/beta-8; assay: Binding affinity to alphavbeta8 in TGF-beta1 stimulated human BHY cells assessed as fluorescence intensity at 10 uM after 1 hr using fluorescence-labeled compound in presence of 10 molar excess peptide 1a by immunocytochemical analysis; type: cell-based
Integrin alpha-V/beta-8 [8] = molecular target: T1, Integrin alpha-V/beta-8; assay: Binding affinity to alphavbeta8 in TGF-beta1 stimulated human BHY cells assessed as fluorescence intensity at 10 uM after 1 hr using fluorescence-labeled compound in presence of 10 molar excess peptide 2 by immunocytochemical analysis; type: cell-based
Integrin alpha-V/beta-8 [9] = molecular target: T1, Integrin alpha-V/beta-8; assay: Binding affinity to alphavbeta8 in TGF-beta1 stimulated human HN cells assessed as fluorescence intensity at 10 uM after 1 hr using in presence of 10 to 20 molar excess peptide 2 by immunocytochemical analysis relative to control
Integrin alpha-V/beta-8 [10] = molecular target: T1, Integrin alpha-V/beta-8; assay: Binding affinity to alphavbeta8 in TGF-beta1 stimulated human BHY cells assessed as fluorescence intensity at 10 uM after 1 hr using in presence of 5 to 100 molar excess peptide 1a by immunocytochemical analysis relative to control; type: cell-based
[11] = Stability in 90% human serum assessed as drug degradation at 1 mM after 180 mins by HPLC analysis; type: ADME, cell-free; details: 3 h, 1000 µM
[12] = Stability in 90% human serum assessed as drug degradation at 1 mM after 15 mins by HPLC analysis; type: ADME, cell-free; details: read-out: Drug degradation
[13] = Stability in 90% human serum assessed as drug degradation at 1 mM after 60 mins by HPLC analysis; type: ADME, cell-free; details: read-out: Drug degradation

Sequence of Integrin alpha-V/beta-3 (P05106 27-788 limits assumed): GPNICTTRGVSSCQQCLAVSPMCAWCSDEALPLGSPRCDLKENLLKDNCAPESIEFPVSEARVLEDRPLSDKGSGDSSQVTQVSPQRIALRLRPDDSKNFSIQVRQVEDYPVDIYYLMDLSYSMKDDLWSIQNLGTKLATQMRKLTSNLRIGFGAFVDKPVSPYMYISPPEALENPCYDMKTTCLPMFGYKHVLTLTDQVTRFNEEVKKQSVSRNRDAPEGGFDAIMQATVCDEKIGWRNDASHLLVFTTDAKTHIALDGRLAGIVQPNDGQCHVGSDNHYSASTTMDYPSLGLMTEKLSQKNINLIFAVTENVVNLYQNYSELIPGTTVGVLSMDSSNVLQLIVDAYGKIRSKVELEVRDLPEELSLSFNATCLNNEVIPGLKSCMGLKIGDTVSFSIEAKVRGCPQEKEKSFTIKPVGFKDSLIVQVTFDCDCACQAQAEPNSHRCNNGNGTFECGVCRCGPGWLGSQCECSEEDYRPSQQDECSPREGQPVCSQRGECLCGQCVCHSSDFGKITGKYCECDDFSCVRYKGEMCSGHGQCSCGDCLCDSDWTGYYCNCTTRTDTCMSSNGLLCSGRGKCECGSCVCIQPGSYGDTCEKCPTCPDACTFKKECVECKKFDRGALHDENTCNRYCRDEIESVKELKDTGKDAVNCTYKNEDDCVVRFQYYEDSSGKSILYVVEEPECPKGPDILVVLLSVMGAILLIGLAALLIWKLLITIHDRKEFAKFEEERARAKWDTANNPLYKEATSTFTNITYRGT
Sequence of Integrin alpha-V/beta-3 (P06756 31-889 limits assumed): as the sequence (P06756 31-889 limits assumed) above
Sequence of Integrin alpha-V/beta-3 (P06756 891-1048 limits assumed): as the sequence (P06756 891-1048 limits assumed) above
Sequence of Integrin alpha-IIb/beta-3 (P05106 27-788 limits assumed): as the sequence (P05106 27-788 limits assumed) above
Sequence of Integrin alpha-IIb/beta-3 (P08514 32-887 limits assumed): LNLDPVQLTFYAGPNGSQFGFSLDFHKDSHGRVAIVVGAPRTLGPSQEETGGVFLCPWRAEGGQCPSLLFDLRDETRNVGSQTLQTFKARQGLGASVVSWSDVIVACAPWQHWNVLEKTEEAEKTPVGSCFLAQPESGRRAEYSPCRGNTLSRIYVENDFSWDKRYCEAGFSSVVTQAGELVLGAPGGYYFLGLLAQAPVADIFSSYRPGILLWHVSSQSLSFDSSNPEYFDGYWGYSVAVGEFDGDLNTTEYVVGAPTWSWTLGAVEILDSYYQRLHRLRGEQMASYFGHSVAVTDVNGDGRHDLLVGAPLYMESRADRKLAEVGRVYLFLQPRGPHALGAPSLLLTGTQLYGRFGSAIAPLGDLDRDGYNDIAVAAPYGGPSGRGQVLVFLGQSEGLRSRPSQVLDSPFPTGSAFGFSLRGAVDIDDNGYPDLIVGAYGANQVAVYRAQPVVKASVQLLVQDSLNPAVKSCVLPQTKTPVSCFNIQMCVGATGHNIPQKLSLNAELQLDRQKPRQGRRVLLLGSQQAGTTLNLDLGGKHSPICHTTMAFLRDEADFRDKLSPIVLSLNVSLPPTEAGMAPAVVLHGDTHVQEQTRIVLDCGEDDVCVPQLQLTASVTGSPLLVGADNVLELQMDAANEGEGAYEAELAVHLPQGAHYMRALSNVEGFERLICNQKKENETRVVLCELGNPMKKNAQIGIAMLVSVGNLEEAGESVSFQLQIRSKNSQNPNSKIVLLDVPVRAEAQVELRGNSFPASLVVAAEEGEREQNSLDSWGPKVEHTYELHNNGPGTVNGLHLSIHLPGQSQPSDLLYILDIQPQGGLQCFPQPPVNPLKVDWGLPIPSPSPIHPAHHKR
Sequence of Integrin alpha-IIb/beta-3 (P08514 891-1039 limits assumed): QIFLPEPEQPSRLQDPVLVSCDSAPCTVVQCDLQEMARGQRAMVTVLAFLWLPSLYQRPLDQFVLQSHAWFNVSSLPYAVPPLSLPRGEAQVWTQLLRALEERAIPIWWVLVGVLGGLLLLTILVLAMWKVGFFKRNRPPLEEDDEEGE
Sequence of Integrin alpha-V/beta-6 (P06756 31-889 limits assumed): as the sequence (P06756 31-889 limits assumed) above
Sequence of Integrin alpha-V/beta-6 (P06756 891-1048 limits assumed): as the sequence (P06756 891-1048 limits assumed) above
Sequence of Integrin alpha-V/beta-6 (P18564 22-788 limits assumed): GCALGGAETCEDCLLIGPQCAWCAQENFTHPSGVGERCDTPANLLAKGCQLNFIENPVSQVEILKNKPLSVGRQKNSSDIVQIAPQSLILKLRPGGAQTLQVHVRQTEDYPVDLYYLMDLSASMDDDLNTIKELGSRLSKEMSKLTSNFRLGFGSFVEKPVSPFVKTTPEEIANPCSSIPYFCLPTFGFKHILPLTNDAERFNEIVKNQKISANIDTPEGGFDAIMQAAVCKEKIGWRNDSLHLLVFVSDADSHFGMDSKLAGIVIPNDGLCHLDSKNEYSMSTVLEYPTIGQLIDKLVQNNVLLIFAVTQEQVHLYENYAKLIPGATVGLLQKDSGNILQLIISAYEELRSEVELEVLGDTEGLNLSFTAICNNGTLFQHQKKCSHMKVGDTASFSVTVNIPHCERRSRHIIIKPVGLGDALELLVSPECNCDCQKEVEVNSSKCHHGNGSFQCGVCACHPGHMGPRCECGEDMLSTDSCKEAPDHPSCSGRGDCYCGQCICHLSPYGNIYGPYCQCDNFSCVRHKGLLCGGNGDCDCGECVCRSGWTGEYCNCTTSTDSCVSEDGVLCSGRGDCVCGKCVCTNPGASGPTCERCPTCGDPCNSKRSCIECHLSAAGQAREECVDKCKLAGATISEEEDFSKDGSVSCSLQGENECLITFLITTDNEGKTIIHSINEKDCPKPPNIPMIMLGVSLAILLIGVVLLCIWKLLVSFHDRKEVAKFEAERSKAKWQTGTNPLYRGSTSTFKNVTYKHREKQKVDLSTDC

Row | Compound | IC50 (Integrin alpha-V/beta-6) [nM] | IC50 (Integrin alpha-V/beta-8 [2]) [nM] | Ratio IC50 (Homo sapiens) | further results
1 | CC(C)C[C@@H]1NC(=O)[C@H](CC(=O)O)NC(=O)CNC(=O)[C@H](CCCNC(=N)N)NC(=O)[C@H](Cc2ccccc2)NC(=O)[C@H](CCCCN)N(C)C(=O)[C@H]2CCCN2C(=O)[C@H](Cc2ccccc2)NC(=O)[C@H](C)NC1=O | – | – | – | IC50 [1]: > 1000 nM; IC50 (Integrin alpha-V/beta-5): > 1000 nM
2 | CC(C)C[C@@H]1NC(=O)CNC(=O)[C@@H]2CCCN2C(=O)[C@H]2CCCN2C(=O)[C@H](CC(C)C)NC(=O)[C@H](CC(=O)O)NC(=O)CNC(=O)[C@H](CCCNC(=N)N)NC1=O (cyclo(RGDL[dP]PGL)) | 160 | 4.5 | 36 | IC50 [1]: > 1000 nM; IC50 (Integrin alpha-V/beta-5): > 1000 nM; IC50 (Integrin alpha-V/beta-3): > 1000 nM; IC50 (Integrin alpha-5/beta-1): > 1000 nM
3 | CC1=CC(C)=[N+]2C1=Cc1ccc(CCC(=O)NCCCCCC(=O)NCCCC[C@@H]3NC(=O)[C@@H](Cc4ccccc4)NC(=O)[C@H](CC(=O)O)NC(=O)CCNC(=O)[C@H](CCCNC(=N)N)NC3=O)n1[B-]2(F)F | – | – | – | Activity (Integrin alpha-V/beta-8 [3]): inactive; Activity (Integrin alpha-V/beta-8 [4]): inactive; Activity (Integrin alpha-V/beta-8 [5]): inactive
4 | CC1=CC(C)=[N+]2C1=Cc1ccc(CCC(=O)NCCCCCC(=O)NCCCC[C@H]3C(=O)NCC(=O)N[C@@H](CC(C)C)C(=O)N[C@@H](CCCNC(=N)N)C(=O)NCC(=O)N[C@@H](CC(=O)O)C(=O)N[C@@H](CC(C)C)C(=O)N4CCC[C@@H]4C(=O)N3C)n1[B-]2(F)F (cyclo(RGDL[dP][NMeK]([Ahx-BODIPY(FL)])GL)) | 47 | 0.06 | – | Activity (Integrin alpha-V/beta-8 [6]): Active; Activity (Integrin alpha-V/beta-8 [3]): Active; Activity (Integrin alpha-V/beta-8 [4]): Active; IC50 [1]: > 1000 nM; Activity (Integrin alpha-V/beta-8 [7]): inactive; IC50 (Integrin alpha-V/beta-5): > 1000 nM; IC50 (Integrin alpha-V/beta-3): 43 nM; Activity (Integrin alpha-V/beta-8 [8]): inactive; Activity (Integrin alpha-V/beta-8 [5]): Active; Activity (Integrin alpha-V/beta-8 [9]): 50%; IC50 (Integrin alpha-5/beta-1): 689 nM; Activity (Integrin alpha-V/beta-8 [10]): inactive
5 | CC(C)C[C@@H]1NC(=O)[C@H](CC(=O)O)NC(=O)CNC(=O)[C@H](CCCNC(=N)N)NC(=O)[C@H](C)NC(=O)[C@@H]2CCCN2C(=O)[C@H]2CCCN2C(=O)[C@H](Cc2ccccc2)NC(=O)[C@H](C)NC1=O (cyclo(ARGDLAF[dP]P)) | – | – | – | IC50 [1]: > 1000 nM; IC50 (Integrin alpha-V/beta-5): > 1000 nM
6 | CC(C)C[C@@H]1NC(=O)[C@H](CC(=O)O)NC(=O)[C@H]([C@@H](C)O)NC(=O)[C@H](CCCNC(=N)N)NC(=O)[C@H](Cc2ccccc2)NC(=O)[C@H](C)NC(=O)[C@@H]2CCCN2C(=O)[C@H]2CCCN2C1=O | 256 | 4.3 | 60 | –
7 | CC(C)C[C@@H]1NC(=O)[C@H](CC(=O)O)NC(=O)CNC(=O)[C@H](CCCNC(=N)N)NC(=O)[C@H](Cc2ccccc2)NC(=O)[C@H](C)NC(=O)[C@@H]2CCCN2C(=O)[C@H]2CCCN2C1=O | 81.3 | 1.83 | 44.1 | –
8 | CC(C)C[C@@H]1NC(=O)[C@H](C)NC(=O)[C@H](Cc2ccccc2)N(C)C(=O)[C@H]2CCCN2C(=O)[C@H](CC(C)C)NC(=O)[C@H](CC(=O)O)NC(=O)CNC(=O)[C@H](CCCNC(=N)N)NC1=O | 74 | 25 | 3 | –
9 | CCCC[C@@H]1NC(=O)[C@H](CC(=O)O)NC(=O)CNC(=O)[C@H](CCCNC(=N)N)NC(=O)[C@H](Cc2ccccc2)NC(=O)[C@H](C)NC(=O)[C@@H]2CCCN2C(=O)[C@H]2CCCN2C1=O | 142 | 38.1 | 3.7 | –
10 | CC(C)C[C@H](NC(=O)[C@H](CO)NC(=O)[C@H](CC(=O)O)NC(=O)[C@H](CC(C)C)NC(=O)[C@H](CC(=O)O)NC(=O)[C@@H](NC(=O)[C@@H](N)CCCNC(=N)N)[C@@H](C)O)C(=O)N[C@@H](CCCNC(=N)N)C(=O)N[C@H](C(=O)O)[C@@H](C)O | – | – | – | metabolised at 0.25 h, 1000 µM [12]: 56%; metabolised at 1 h, 1000 µM [13]: 100%
11 | CC[C@H](C)[C@@H]1NC(=O)[C@H](CC(=O)O)NC(=O)CNC(=O)[C@H](CCCNC(=N)N)NC(=O)[C@H](Cc2ccccc2)NC(=O)[C@H](C)NC(=O)[C@@H]2CCCN2C(=O)[C@H]2CCCN2C1=O | 707 | 169 | 4.2 | –

Further lines, with some results ahead:

Row | IC50 (Integrin alpha-V/beta-6) [nM] | IC50 (Integrin alpha-V/beta-8 [2]) [nM] | Ratio IC50 (Homo sapiens) | Compound | further results
12 | 75.9 | 6.3 | 12 | CC(C)C[C@@H]1NC(=O)[C@H](CC(=O)O)NC(=O)CNC(=O)[C@H](CCCNC(=N)N)NC(=O)[C@H](CC(=O)O)NC(=O)[C@H](C)NC(=O)[C@@H]2CCCN2C(=O)[C@H]2CCCN2C1=O | –
13 | 889 | 631 | 1.4 | CC(C)C[C@@H]1NC(=O)[C@@H]2CCCN2C(=O)[C@H]2CCCN2C(=O)[C@H](CC(C)C)NC(=O)[C@H](CC(=O)O)NC(=O)CNC(=O)[C@H](CCCNC(=N)N)NC(=O)[C@H](C)NC(=O)[C@H](C)NC(=O)[C@H](C)NC1=O | –
14 | 70 | 44 | 1.6 | CC(C)C[C@@H]1NC(=O)[C@H](C)NC(=O)[C@H](C(C)C)N(C)C(=O)[C@H]2CCCN2C(=O)[C@H](CC(C)C)NC(=O)[C@H](CC(=O)O)NC(=O)CNC(=O)[C@H](CCCNC(=N)N)NC1=O | –
15 | 204 | 12.8 | 16 | CCCCCCNC1C[C@H]2C(=O)NCC(=O)N[C@@H](CC(C)C)C(=O)N[C@@H](CCCNC(=N)N)C(=O)NCC(=O)N[C@@H](CC(=O)O)C(=O)N[C@@H](CC(C)C)C(=O)N3CCC[C@@H]3C(=O)N2C1 (stereo partly specified) | –
16 | 95 | 15 | 6.3 | CC(C)C[C@@H]1NC(=O)[C@H](C)NC(=O)[C@@H]2CCCN2C(=O)[C@@H](CC(C)C)N(C)C(=O)[C@H](CC(C)C)NC(=O)[C@H](CC(=O)O)NC(=O)CNC(=O)[C@H](CCCNC(=N)N)NC1=O | –
17 | 99 | 8 | 12 | CC(=O)NCCCC[C@H]1C(=O)NCC(=O)N[C@@H](CC(C)C)C(=O)N[C@@H](CCCNC(=N)N)C(=O)NCC(=O)N[C@@H](CC(=O)O)C(=O)N[C@@H](CC(C)C)C(=O)N2CCC[C@@H]2C(=O)N1C (cyclo(RGDL[dP][NMeK](Ac)GL)) | Stability [11]: Stable; IC50 [1]: > 1000 nM; IC50 (Integrin alpha-V/beta-5): > 1000 nM; IC50 (Integrin alpha-V/beta-3): 343 nM; IC50 (Integrin alpha-5/beta-1): > 1000 nM
18 | 40.2 | 1.54 | 26.1 | CC[C@H](C)[C@@H]1NC(=O)[C@H](C)NC(=O)[C@@H]2CCCN2C(=O)[C@H]2CCCN2C(=O)[C@H](CC(C)C)NC(=O)[C@H](CC(=O)O)NC(=O)CNC(=O)[C@H](CCCNC(=N)N)NC1=O | –
